Experimental data: ChEMBL document CHEMBL1201862, “PubChem BioAssay data set” (2004)
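Where inhibition never reached the appropriate level, the endpoint shown equals the highest concentration tested. Otherwise, values were interpolated linearly from a five-concentration, 48-hour dose response in 96-well plates. At the GI50, growth is halved.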 Activity calls are given as the source filed them. No stated cut-off is given here; in the data, active = GI50 up to about 1.1 µM and inactive = higher.

What was measured:
Experiment in all cases: DTP human tumour cell line panel, 48 h
TK-10 = test system: TK-10
M14 = test system: M14
MOLT-4 = test system: MOLT-4
UACC-257 = test system: UACC-257
BT-549 = test system: BT-549
A549 = test system: A549
UACC-62 = test system: UACC-62
HL-60 = test system: HL-60
HOP-92 = test system: HOP-92
SF-295 = test system: SF-295
MDA-MB-435 = test system: MDA-MB-435
MDA-MB-231 = test system: MDA-MB-231
EKVX = test system: EKVX
A498 = test system: A498
SR = test system: SR
U-251 = test system: U-251
CAKI-1 = test system: CAKI-1
NCI-H226 = test system: NCI-H226
SK-MEL-5 = test system: SK-MEL-5

Row | SMILES | GI50 (TK-10) | GI50 (M14) | GI50 (MOLT-4) | GI50 (UACC-257) | GI50 (BT-549) | GI50 (A549) | GI50 (UACC-62) | GI50 (HL-60) | GI50 (HOP-92) | GI50 (SF-295) | GI50 (MDA-MB-435) | GI50 (MDA-MB-231) | GI50 (EKVX) | GI50 (A498) | GI50 (SR) | GI50 (U-251) | GI50 (CAKI-1) | GI50 (NCI-H226) | GI50 (SK-MEL-5)
1 | O=C(O)COCC(=O)N(CCOCCN(Cc1ccccc1)C(=O)COCC(=O)O)Cc1ccccc1 | > 100 µM (inactive) | > 100 µM (inactive) | > 100 µM (inactive) | > 100 µM (inactive) | > 100 µM (inactive) | > 100 µM (inactive) | > 100 µM (inactive) | > 100 µM (inactive) | < 0.01 µM (active) | > 100 µM (inactive) | > 100 µM (inactive) | > 100 µM (inactive) | > 100 µM (inactive) | > 100 µM (inactive) | > 100 µM (inactive) | > 100 µM (inactive) | > 100 µM (inactive) | > 100 µM (inactive) | > 100 µM (inactive)
2 | O=Cc1cn(CCCCCCCCCCCCn2cc(C=O)c3ccccc32)c2ccccc12 | > 100 µM (inactive) | > 100 µM (inactive) | > 100 µM (inactive) | 2.47 µM (inactive) | > 100 µM (inactive) | 56 µM (inactive) | > 100 µM (inactive) | 1.56 µM (inactive) | > 100 µM (inactive) | 3.56 µM (inactive) | 5.22 µM (inactive) | > 100 µM (inactive) | 7.53 µM (inactive) | 61 µM (inactive) | 11.7 µM (inactive) | > 100 µM (inactive) | > 100 µM (inactive) | 57.3 µM (inactive) | 0.611 µM (active)
3 | O=C1CSC(c2cc3cc(Br)ccc3nc2Cl)N1c1ccc(F)c(Cl)c1 (stereo not given) | > 50 µM (inactive) | > 50 µM (inactive) | 11.1 µM (inactive) | > 50 µM (inactive) | > 50 µM (inactive) | > 50 µM (inactive) | > 50 µM (inactive) | > 50 µM (inactive) | > 50 µM (inactive) | > 50 µM (inactive) | 25.1 µM (inactive) | > 50 µM (inactive) | 25.1 µM (inactive) | > 50 µM (inactive) | 12.7 µM (inactive) |  | > 50 µM (inactive) | 43.5 µM (inactive) | > 50 µM (inactive)
4 | CC(C)c1c(O)c(O)c2c(c1O)C(=O)C(O)=C1C(C)(C)CCC[C@@]12C | 3.86 µM (inactive) | 5.47 µM (inactive) | 2.96 µM (inactive) | 2.67 µM (inactive) | 3.29 µM (inactive) | 3.6 µM (inactive) | 3.86 µM (inactive) | 2.05 µM (inactive) | 1.89 µM (inactive) | 2.96 µM (inactive) | 2.96 µM (inactive) | 2.92 µM (inactive) | 2.9 µM (inactive) | 3.84 µM (inactive) | 4.05 µM (inactive) | 2.77 µM (inactive) | 2.61 µM (inactive) | 3.01 µM (inactive) | 2.6 µM (inactive)
5 | CCCC[C@H]1C(=O)O[C@H](C)[C@H](NC(=O)c2cccc(NC=O)c2O)C(=O)O[C@@H](C)[C@@H]1OC(=O)CC(C)C [ANTIMYCIN A3] | 6.79 µM (inactive) | 14.9 µM (inactive) | < 0.01 µM (active) | 0.04 µM (active) | 1.68 µM (inactive) | 0.0441 µM (active) | 0.16 µM (active) | 0.0968 µM (active) | 5.36 µM (inactive) | < 0.0421 µM (active) | 1.11 µM (active) | 4.37 µM (inactive) | 0.321 µM (active) | 4.23 µM (inactive) | < 0.0347 µM (active) | 0.149 µM (active) | 11.9 µM (inactive) | 0.883 µM (active) | < 0.01 µM (active)
6 | O=C(/C=C/c1cccc2ccccc12)c1ccccc1 | 6.35 µM (inactive) | 14.6 µM (inactive) | 3.94 µM (inactive) | 15 µM (inactive) | 13.2 µM (inactive) | 15.2 µM (inactive) | 11.7 µM (inactive) | 2.88 µM (inactive) | 18.3 µM (inactive) | 16.5 µM (inactive) | 8.81 µM (inactive) | 8.93 µM (inactive) | 13.4 µM (inactive) | 17.4 µM (inactive) | 2.9 µM (inactive) | 8.63 µM (inactive) | 12.2 µM (inactive) | 12.7 µM (inactive) | 12.5 µM (inactive)
7 | CC(C)(C)CC(C)(C)c1ccc(O)c(C[N+](C)(C)[O-])c1 | > 100 µM (inactive) | > 100 µM (inactive) | 53.6 µM (inactive) | > 100 µM (inactive) | > 100 µM (inactive) | > 100 µM (inactive) | > 100 µM (inactive) | 33.3 µM (inactive) | 77.4 µM (inactive) | > 100 µM (inactive) | 79.4 µM (inactive) | > 100 µM (inactive) | > 100 µM (inactive) | > 100 µM (inactive) | 64.9 µM (inactive) | > 100 µM (inactive) | > 100 µM (inactive) | > 100 µM (inactive) | 58.9 µM (inactive)
8 | CCCCCC(/C=N/N)C(O)(C(F)(F)F)C(F)(F)F (stereo not given) | 7.89 µM (inactive) | 4.47 µM (inactive) | > 10 µM (inactive) | 5 µM (inactive) | 4.04 µM (inactive) | 4.91 µM (inactive) | 3.9 µM (inactive) | > 10 µM (inactive) | 2.79 µM (inactive) | 3.13 µM (inactive) | 3.53 µM (inactive) | 4.07 µM (inactive) | 2.58 µM (inactive) | 2.44 µM (inactive) | > 10 µM (inactive) | 3.61 µM (inactive) | 2.47 µM (inactive) | 2.54 µM (inactive) | 1.77 µM (inactive)
9 | Brc1ccc(C2C3CSc4ccccc4C3=NN2c2ccccc2)cc1 (stereo not given) | > 100 µM (inactive) | > 100 µM (inactive) | 43 µM (inactive) | 4.07 µM (inactive) | > 100 µM (inactive) | 56.9 µM (inactive) | 75.7 µM (inactive) | 42.9 µM (inactive) | > 100 µM (inactive) |  | > 100 µM (inactive) | > 100 µM (inactive) |  | > 100 µM (inactive) | 44.2 µM (inactive) | 54.2 µM (inactive) | 41 µM (inactive) | > 100 µM (inactive) | 31.8 µM (inactive)
10 | CC1(C)OC(=S)N(c2ccccc2)C12C=Cc1cc3ccccc3cc1O2 (stereo not given) | > 100 µM (inactive) | > 100 µM (inactive) | > 100 µM (inactive) | > 100 µM (inactive) | > 100 µM (inactive) | > 100 µM (inactive) | > 100 µM (inactive) | 16.6 µM (inactive) | > 100 µM (inactive) | > 100 µM (inactive) | > 100 µM (inactive) | > 100 µM (inactive) | > 100 µM (inactive) | > 100 µM (inactive) | 9.46 µM (inactive) | > 100 µM (inactive) | > 100 µM (inactive) | > 100 µM (inactive) | > 100 µM (inactive)
11 | COc1ccc(/C=C/C(=O)c2cccc(C(=O)/C=C/c3ccc(OC)c(OC)c3)n2)cc1OC | > 100 µM (inactive) | 32.7 µM (inactive) | 2.82 µM (inactive) | 39.6 µM (inactive) | 6.15 µM (inactive) | > 100 µM (inactive) | 21.7 µM (inactive) | 1.15 µM (inactive) | > 100 µM (inactive) | > 73.8 µM (inactive) | > 50.9 µM (inactive) | 25.4 µM (inactive) | > 95.9 µM (inactive) | > 91.2 µM (inactive) | 2.91 µM (inactive) | 6.52 µM (inactive) | > 57.9 µM (inactive) | > 100 µM (inactive) | 98.4 µM (inactive)
12 | CC(C)/C(Cl)=N/OC(=O)Nc1ccc(F)c(Cl)c1 | 17.9 µM (inactive) | 3.23 µM (inactive) | 1.94 µM (inactive) | 13.5 µM (inactive) | 5.06 µM (inactive) | 18.1 µM (inactive) | 14.2 µM (inactive) | 2.03 µM (inactive) | 1.59 µM (inactive) | 16.1 µM (inactive) | 7.26 µM (inactive) | 16.2 µM (inactive) | 2.07 µM (inactive) | 18.2 µM (inactive) | 1.56 µM (inactive) | 21.1 µM (inactive) | 1.68 µM (inactive) | 16.6 µM (inactive) | 13.1 µM (inactive)
13 | CC1(C)OC(=O)N(c2ccccc2)C12C=Cc1cc([N+](=O)[O-])cc([N+](=O)[O-])c1O2 (stereo not given) | > 100 µM (inactive) | 61.5 µM (inactive) | > 100 µM (inactive) | 50.2 µM (inactive) | > 100 µM (inactive) | > 100 µM (inactive) | 61 µM (inactive) | 61.9 µM (inactive) | 12.4 µM (inactive) | > 100 µM (inactive) | 83.9 µM (inactive) | > 100 µM (inactive) | 91.8 µM (inactive) | 81.3 µM (inactive) | > 100 µM (inactive) | > 100 µM (inactive) | > 100 µM (inactive) | > 100 µM (inactive) | > 100 µM (inactive)
14 | O=S(=O)(c1cnccc1N1CCN(CCO)CC1)N1CCCC1 | > 100 µM (inactive) | > 100 µM (inactive) |  | > 100 µM (inactive) | > 100 µM (inactive) | > 100 µM (inactive) | > 100 µM (inactive) | > 100 µM (inactive) | > 100 µM (inactive) | > 100 µM (inactive) | > 100 µM (inactive) | > 100 µM (inactive) | > 100 µM (inactive) | > 100 µM (inactive) | > 100 µM (inactive) | > 100 µM (inactive) | > 100 µM (inactive) | > 100 µM (inactive) | > 100 µM (inactive)
15 | C/C(=N\Nc1nc2ccccc2n1C)c1cc2ccccc2cn1 |  | < 0.0335 µM (active) | < 0.01 µM (active) | < 0.0105 µM (active) | 2.8 µM (inactive) | 0.0327 µM (active) | 0.0403 µM (active) | 0.0103 µM (active) | 0.321 µM (active) | 0.144 µM (active) | 0.295 µM (active) | < 0.01 µM (active) | < 0.0111 µM (active) | 0.194 µM (active) | < 0.0169 µM (active) | < 0.0275 µM (active) | < 0.01 µM (active) | 0.0448 µM (active) | 0.0286 µM (active)
